# Measurements taken from patent US6472348B1, “Pyridone derivatives and herbicides” (Kumiai Chemical Industry Co., Ltd., priority 1996, dated 2002).
# Tested on: pale smartweed (Po)
# Experiment: Test Example 9: crop plant selectivity by upland field foliage treatment (wheat), herbicidal effects
# Type: in vivo
# Parameters: scale not given here
# Conditions: dose 1.6 g ai/10a, 14th day after treatment
# Summary of the method: (§1)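 Read-out: weed control and wheat injury, rated by a defined scoring standard 14 days after foliar application.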
row,Compound,Herbicidal effects Po
1,C#CCNc1cc(-c2ccc(C(F)(F)F)n(C)c2=O)c(F)cc1Cl [1-62],5

# Tested on: common lambsquarters (Ch)
# Experiment: as above
# Type: in vivo
# Parameters: scale not given here
# Conditions: dose 1.6 g ai/10a, 14th day after treatment
# Summary of the method: as §1
row,Compound,Herbicidal effects Ch
1,C#CCNc1cc(-c2ccc(C(F)(F)F)n(C)c2=O)c(F)cc1Cl [1-62],5

# Tested on: China jute (Ab)
# Experiment: as above
# Type: in vivo
# Parameters: scale not given here
# Conditions: dose 1.6 g ai/10a, 14th day after treatment
# Summary of the method: as §1
row,Compound,Herbicidal effects Ab
1,C#CCNc1cc(-c2ccc(C(F)(F)F)n(C)c2=O)c(F)cc1Cl [1-62],5

# Tested on: slender amaranth (Am)
# Experiment: as above
# Type: in vivo
# Parameters: scale not given here
# Conditions: dose 1.6 g ai/10a, 14th day after treatment
# Summary of the method: as §1
row,Compound,Herbicidal effects Am
1,C#CCNc1cc(-c2ccc(C(F)(F)F)n(C)c2=O)c(F)cc1Cl [1-62],5

# Tested on: barnyardgrass (Ec)
# Experiment: Test Example 1: herbicidal effects by paddy field soil treatment;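 note: grade of growth control; 5 = at least 90%; 4 = 70 to 90%; 3 = 50 to 70%; 2 = 30 to 50%; 1 = 10 to 30%; 0 = under 10%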
# Type: in vivo
# Conditions: 100 g of the active ingredient per 10 ares, 21st day after the application, index 0-5 of Table 47
# Summary of the method: (§2)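 Flooded paddy-soil pots (3 cm water) sown after puddling/leveling; treatment 100 g a.i./10 ares; greenhouse culture; herbicidal effect rated visually on a scoring scale at 21 d post-application.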
row,Compound,Herbicidal effects Ec
1,C#CCNc1cc(-c2ccc(C(F)(F)F)n(C)c2=O)c(F)cc1Cl [1-62],5

# Tested on: bulrush (Sc)
# Experiment: as above
# Type: in vivo
# Conditions: 100 g of the active ingredient per 10 ares, 21st day after the application, index 0-5 of Table 47
# Summary of the method: as §2
row,Compound,Herbicidal effects Sc
1,C#CCNc1cc(-c2ccc(C(F)(F)F)n(C)c2=O)c(F)cc1Cl [1-62],5

# Tested on: monochoria (Mo)
# Experiment: as above
# Type: in vivo
# Conditions: 100 g of the active ingredient per 10 ares, 21st day after the application, index 0-5 of Table 47
# Summary of the method: as §2
row,Compound,Herbicidal effects Mo
1,C#CCNc1cc(-c2ccc(C(F)(F)F)n(C)c2=O)c(F)cc1Cl [1-62],5

# Tested on: barnyardgrass (Ec)
# Experiment: Test Example 3: herbicidal effects by upland field foliage treatment
# Type: in vivo
# Parameters: scale not given here
# Conditions: 100 g of the active ingredient per 10 ares, evaluated on the 14th day after treatment
# Summary of the method: (§3)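 Scoring used a standard effect scale on the 14th day post-treatment, with plants held in a greenhouse throughout. Foliar application was made to weeds raised from seed in sand-filled pots for 2 weeks.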
row,Compound,Herbicidal effects Ec
1,C#CCNc1cc(-c2ccc(C(F)(F)F)n(C)c2=O)c(F)cc1Cl [1-62],5

# Tested on: Diaitaria ciliaris (Di)
# Experiment: as above
# Type: in vivo
# Parameters: scale not given here
# Conditions: 100 g of the active ingredient per 10 ares, evaluated on the 14th day after treatment
# Summary of the method: as §3
row,Compound,Herbicidal effects Di
1,C#CCNc1cc(-c2ccc(C(F)(F)F)n(C)c2=O)c(F)cc1Cl [1-62],5

# Tested on: pale smartweed (Po)
# Experiment: as above
# Type: in vivo
# Parameters: scale not given here
# Conditions: 100 g of the active ingredient per 10 ares, evaluated on the 14th day after treatment
# Summary of the method: as §3
row,Compound,Herbicidal effects Po
1,C#CCNc1cc(-c2ccc(C(F)(F)F)n(C)c2=O)c(F)cc1Cl [1-62],5

# Tested on: common lambsquarters (Ch)
# Experiment: as above
# Type: in vivo
# Parameters: scale not given here
# Conditions: 100 g of the active ingredient per 10 ares, evaluated on the 14th day after treatment
# Summary of the method: as §3
row,Compound,Herbicidal effects Ch
1,C#CCNc1cc(-c2ccc(C(F)(F)F)n(C)c2=O)c(F)cc1Cl [1-62],5

# Tested on: rice flatsedge (Ci)
# Experiment: as above
# Type: in vivo
# Parameters: scale not given here
# Conditions: 100 g of the active ingredient per 10 ares, evaluated on the 14th day after treatment
# Summary of the method: as §3
row,Compound,Herbicidal effects Ci
1,C#CCNc1cc(-c2ccc(C(F)(F)F)n(C)c2=O)c(F)cc1Cl [1-62],5

# Tested on: slender amaranth (Am)
# Experiment: as above
# Type: in vivo
# Parameters: scale not given here
# Conditions: 100 g of the active ingredient per 10 ares, evaluated on the 14th day after treatment
# Summary of the method: as §3
row,Compound,Herbicidal effects Am
1,C#CCNc1cc(-c2ccc(C(F)(F)F)n(C)c2=O)c(F)cc1Cl [1-62],5

# Tested on: barnyardgrass (Ec)
# Experiment: Test Example 2: herbicidal effects by upland field soil treatment;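 note: grade of growth control; 5 = at least 90%; 4 = 70 to 90%; 3 = 50 to 70%; 2 = 30 to 50%; 1 = 10 to 30%; 0 = under 10%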
# Type: in vivo
# Conditions: 100 g of the active ingredient per 10 ares, 21st day after the application, index 0-5 of Table 47
# Excerpt: (§4) (Test on Herbicidal Effects by Upland Field Soil Treatment)
row,Compound,Herbicidal effects Ec
1,C#CCNc1cc(-c2ccc(C(F)(F)F)n(C)c2=O)c(F)cc1Cl [1-62],5

# Tested on: pale smartweed (Po)
# Experiment: as above
# Type: in vivo
# Conditions: 100 g of the active ingredient per 10 ares, 21st day after the application, index 0-5 of Table 47
# Excerpt: as §4
row,Compound,Herbicidal effects Po
1,C#CCNc1cc(-c2ccc(C(F)(F)F)n(C)c2=O)c(F)cc1Cl [1-62],5

# Tested on: Digitaria ciliaris (Di)
# Experiment: as above
# Type: in vivo
# Conditions: 100 g of the active ingredient per 10 ares, 21st day after the application, index 0-5 of Table 47
# Excerpt: as §4
row,Compound,Herbicidal effects Di
1,C#CCNc1cc(-c2ccc(C(F)(F)F)n(C)c2=O)c(F)cc1Cl [1-62],5

# Tested on: common lambsquarters (Ch)
# Experiment: as above
# Type: in vivo
# Conditions: 100 g of the active ingredient per 10 ares, 21st day after the application, index 0-5 of Table 47
# Excerpt: as §4
row,Compound,Herbicidal effects Ch
1,C#CCNc1cc(-c2ccc(C(F)(F)F)n(C)c2=O)c(F)cc1Cl [1-62],5

# Tested on: rice flatsedge (Ci)
# Experiment: as above
# Type: in vivo
# Conditions: 100 g of the active ingredient per 10 ares, 21st day after the application, index 0-5 of Table 47
# Excerpt: as §4
row,Compound,Herbicidal effects Ci
1,C#CCNc1cc(-c2ccc(C(F)(F)F)n(C)c2=O)c(F)cc1Cl [1-62],5

# Tested on: slender amaranth (Am)
# Experiment: as above
# Type: in vivo
# Conditions: 100 g of the active ingredient per 10 ares, 21st day after the application, index 0-5 of Table 47
# Excerpt: as §4
row,Compound,Herbicidal effects Am
1,C#CCNc1cc(-c2ccc(C(F)(F)F)n(C)c2=O)c(F)cc1Cl [1-62],5

# Tested on: corn (Ze)
# Experiment: Test Example 11: crop plant selectivity by upland field foliage treatment (corn), phytotoxicity
# Conditions: upland field foliage treatment, dose 1.6 g ai/10a, 14th day after treatment
# Description: (§5) (Test on Crop Plant Selectivity by Upland Field Foliage Treatment)
# (§6) In a plastic pot (surface area: 600 cm^2) filled with sand, corn (Ze), pale smartweed (Po), slender amaranth (Am), common lambsquarters (Ch) and China jute (Ab) were sown and cultured in a green house for 2 weeks. […] The plants were then cultured in a green house, and the evaluation of the herbicidal effects and phytotoxicity was conducted on the 14th day after the treatment in accordance with the standards as identified in Table 47.
row,Compound,Phytotoxicity Ze
1,C#CCNc1cc(-c2ccc(C(F)(F)F)n(C)c2=O)c(F)cc1Cl [1-62],2

# Tested on: wheat (Tr)
# Experiment: Test Example 9: crop plant selectivity by upland field foliage treatment (wheat), phytotoxicity;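 note: grade of crop injury; 5 = at least 90%; 4 = 70 to 90%; 3 = 50 to 70%; 2 = 30 to 50%; 1 = 10 to 30%; 0 = under 10%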
# Conditions: dose 1.6 g ai/10a, 14th day after treatment
# Summary of the method: as §1
row,Compound,Phytotoxicity Tr
1,C#CCNc1cc(-c2ccc(C(F)(F)F)n(C)c2=O)c(F)cc1Cl [1-62],2

# Tested on: pale smartweed (Po)
# Experiment: Test Example 11: crop plant selectivity by upland field foliage treatment (corn), herbicidal effects
# Type: in vivo
# Parameters: scale not given here
# Conditions: upland field foliage treatment (corn test), dose 1.6 g ai/10a, 14th day after treatment
# Description: as §5, §6
row,Compound,Herbicidal effects Po
1,C#CCNc1cc(-c2ccc(C(F)(F)F)n(C)c2=O)c(F)cc1Cl [1-62],5

# Tested on: common lambsquarters (Ch)
# Experiment: as above
# Type: in vivo
# Parameters: scale not given here
# Conditions: upland field foliage treatment (corn test), dose 1.6 g ai/10a, 14th day after treatment
# Description: as §5, §6
row,Compound,Herbicidal effects Ch
1,C#CCNc1cc(-c2ccc(C(F)(F)F)n(C)c2=O)c(F)cc1Cl [1-62],5

# Tested on: China jute (Ab)
# Experiment: as above
# Type: in vivo
# Parameters: scale not given here
# Conditions: upland field foliage treatment (corn test), dose 1.6 g ai/10a, 14th day after treatment
# Description: as §5, §6
row,Compound,Herbicidal effects Ab
1,C#CCNc1cc(-c2ccc(C(F)(F)F)n(C)c2=O)c(F)cc1Cl [1-62],5

# Tested on: slender amaranth (Am)
# Experiment: as above
# Type: in vivo
# Parameters: scale not given here
# Conditions: upland field foliage treatment (corn test), dose 1.6 g ai/10a, 14th day after treatment
# Description: as §5, §6
row,Compound,Herbicidal effects Am
1,C#CCNc1cc(-c2ccc(C(F)(F)F)n(C)c2=O)c(F)cc1Cl [1-62],5
